Entries after “also recorded” stand apart in the source; their conditions may differ.
Tests used:
[1] = tested on: Caco-2 cell monolayers; test: Transepithelial electrical resistance (TEER) of Caco-2 monolayers on Transwell inserts; format: cell-based, human; conditions: for effect on Caco-2 TEER in LAP-treated cells: BAY 10 μM or PDTC 100 μM
[2] = tested on: L. monocytogenes; test: Translocation of L. monocytogenes through polarized Caco-2 monolayers on Transwell filter-inserts; format: cell-based, Listeria monocytogenes; conditions: for effect on translocation of the lap strain: 30 min pretreatment, BAY 10 μM or PDTC 100 μM
Description: Caco-2 cells were grown as monolayers on Transwell inserts with 3.0 μm pores (Corning-Costar) for up to 14-21 days. TEER was measured to monitor the monolayer integrity (Millicells Voltmeter, Millipore). A TEER value of at least 200 Ω/cm^2 (±10) was used as the basal value to monitor the monolayer integrity. Bacterial cells were washed three times in PBS and resuspended in DMEM-FBS (10%) at a MOI of ˜50 and were added to the apical side of the Transwell system, and after 2 h incubation period at 37° C. in 5% CO2, the liquid was collected from the basal well, and then translocated bacteria were enumerated by plating (Burkholder and Bhunia, 2010). For analysis of FD4 flux, non-metabolizable 4 kDa FITC-labeled dextran (FD4; 5 mg/ml, Sigma-Aldrich) was added with bacteria (MOI, ˜50) resuspended in DMEM-FBS (10%) and added to the apical side. After 2 h incubation at 37° C. in 5% CO2, the liquid was collected from the basal well and fluorescence was measured (Em: 485 nm; Ex: 520 nm; Spectramax, Molecular Devices). For pharmacological inhibition treatments, PDTC (100 μM for 30 min pre-treatment; R&D Systems), Bay-11-7085 (10 μM for 30 min pre-treatment; Sigma-Aldrich), ML-9 (20 μM for 30 min pre-treatment; Sigma-Aldrich), PIK (150 μM, 30 min-pre-treatment and kept during 2-h infection) (Zolotarevsky et al., 2002), and Cytochalasin D (1 μg/mL for 1 h; Sigma-Aldrich) were used separately.
For re-association of externally added LAP to the lap^− mutant, bacteria were harvested from 1 ml of overnight grown culture, and the pellet was washed three times in PBS before the addition of 1 or 2 μg/mL of purified LAP. The mixture was incubated for 30 min at 30° C. with continuous shaking and then pelleted, washed five times in the PBS, resuspended in DMEM, and used in the aforementioned translocation assay.

[3] = tested on: L. monocytogenes; test: Intracellular invasion of L. monocytogenes in Caco-2 cells (gentamicin protection); format: cell-based, Listeria monocytogenes
Description: For bacterial invasion analysis, monolayers were washed with PBS after 1 h of infection (MOI, ˜50) and incubated with DMEM-FBS (10%) containing gentamicin (50 μg/mL) for 1 h. Caco-2 cells were lysed with 0.1% Triton X, and the internalized bacteria were enumerated by plating.

[4] = tested on: NF-κB(p65); test: Immunoblot of NF-κB activation in Caco-2 cytoplasmic and nuclear extracts; format: cell-based, human; conditions: BAY 10 μM or PDTC 100 μM, Caco-2 cells
Description: (§1) To extract the proteins from Caco-2 cells, cells were seeded in 6-well plates for 14-21 days. Following treatment, the cells were washed, scraped from the bottom of 6-well plates, suspended in PBS, and pelleted by centrifugation. Total protein from Caco-2 cells was extracted using the M-PER Extraction Kit (Thermo Fisher Scientific). Detergent-insoluble (membrane) and detergent-soluble (cytosolic) proteins were isolated using a Mem-Per Eukaryotic Protein Extraction Kit (Thermo Fisher Scientific) while the cytosolic and nuclear proteins were extracted using NE-PER Extraction Reagent (Thermo Fisher Scientific). To extract proteins from ileal epithelial cells, the epithelial cell fraction from ileal tissues were isolated as described above and the detergent-insoluble and the detergent-soluble proteins were isolated using a Mem-Per Eukaryotic Protein Extraction Kit.
To extract total protein from intact bacterial cells, sample solvent buffer and sonication (3 cycles of […]) were used. To isolate the cell wall-associated proteins bacterial pellets were resuspended in 0.5 ml protein extraction buffer (0.5% SDS, 10 mM Tris at pH 6.9), and incubated at 37° C. for 30 min with agitation. The samples were centrifuged (14,000×g, 10 min, 4° C.), and the supernatants (containing cell wall-associated proteins) were retained. Halt proteases and phosphatase inhibitors (Thermo Fisher Scientific) were used during all of the protein extraction procedures. The protein concentrations were determined by BCA assay (Thermo Fisher Scientific), and separated on SDS-PAGE gels (10-12.5% polyacrylamide) and electro-transferred to polyvinylidene difluoride (PVDF) membrane (Millipore). The membranes were then blocked in 5% nonfat dry milk (NFDM) in 0.1 M Tris-buffered saline, pH 7.5 (TBS) containing 0.1% Tween 20 (TBST) for at least 1 h. All of the primary antibodies were diluted in 5% bovine serum albumin (BSA) or 5% NFDM in TBST and incubated overnight. Secondary antibodies (1:2000 in 5% NFDM in TBST) incubated for 1 h at 37° C., and a chemiluminescence method was performed using LumiGLO reagent (Cell Signaling). The membranes were exposed to X-ray films or visualized using the Chemi-Doc XRS system (Bio-Rad). To immunoprobe the same membrane with another antibody, the originally bound antibodies from the membranes were removed by incubating the membranes in Restore Western Blot Stripping Buffer (Thermo Fisher Scientific) according to the manufacturer's protocol. To compare the reaction intensities, the average band densities were determined using Quantity One software (Bio-Rad). Densitometry reports represent the mean±SEM after normalization to the loading control and is presented as % change of protein with the average for untreated cells (control) set at 100%. Immunoblots and densitometric reports are representative of 2-3 independent experiments.

[5] = tested on: MLCK; test: Immunoblot of MLCK and P-MLC in whole-cell Caco-2 lysates; format: cell-based, human; conditions: pre-treatment prior to infection with WT strain, relative to uninfected cells
Description: as §1
(§2) To extract total protein from intact bacterial cells, sample solvent buffer and sonication (3 cycles of 20 min each) were used. […] The protein concentrations were determined by BCA assay (Thermo Fisher Scientific), and separated on SDS-PAGE gels (10-12.5% polyacrylamide) and electro-transferred to polyvinylidene difluoride (PVDF) membrane (Millipore). […] To compare the reaction intensities, the average band densities were determined using Quantity One software (Bio-Rad). […]

[6] = tested on: occludin, claudin-1 and E-cadherin; test: Immunoblot of junctional proteins in detergent-insoluble fraction of Caco-2 cells; format: cell-based, human
Description: as §1, §2

Row | Structure (SMILES) | effect of the inhibitor alone on Caco-2 TEER [1] | increase of translocation of WT ([2]; cytochalasin D 1 μg/mL for 1 h) | effect on intracellular invasion of the WT strain [3] | effect on Caco-2 TEER in LAP-treated cells [1] | effect on translocation of the lap strain [2] | effect on LAP-mediated NF-κB activation [4] | effect on translocation of WT and ΔinlA strains ([2]; PIK 150 μM or ML-9 20 μM, MOI 50) | levels of MLCK and P-MLC in whole cell lysate [5] | effect of the inhibitor alone on expression of junctional proteins [6] | effect on L. monocytogenes-induced redistribution of occludin, claudin-1 and E-cadherin ([6]; PIK 150 μM or BAY 10 μM, 30 min, prior to WT infection (MOI 50, 45 min))
1 | C=C1[C@@H](C)[C@H]2[C@H](Cc3ccccc3)NC(=O)[C@]23[C@H](OC(C)=O)/C=C/[C@@](C)(O)C(=O)[C@@H](C)C/C=C/[C@H]3[C@@H]1O [Cytochalasin D] | very low | approximately 2.5 fold | low |  |  |  |  |  |  | 
2 | S=C(S)N1CCCC1 [PDTC, pyrrolidine dithiocarbamate] | did not affect |  | did not affect | restored | no apparent effect | inhibited |  |  |  | 
3 | O=S(=O)(c1cccc2c(Cl)cccc12)N1CCCNCC1 [ML-9] |  |  | none of these inhibitors, affected the intracellular invasion capabilities |  |  |  | significantly reduced |  |  | 
4 | CC(C)(C)c1ccc(S(=O)(=O)/C=C/C#N)cc1 [BAY, BAY 11-7085] |  |  | did not affect | restored | no apparent effect | inhibited |  | unchanged levels | no effect | prevented; also recorded: Restoration
